Measured values from paper PMC10338470, “Phase 1 study of GSK3368715, a type I PRMT inhibitor, in patients with advanced solid tumors” (British Journal of Cancer, 2023).
“And” between values parts separate entries of the source, which are not always exact repeats. Equal entries are not always repeated. Marks after values point to notes of the source that are not given here.

Experiment: Phase 1 safety: adverse events, dose-limiting toxicities, thromboembolic events (NCI-CTCAE v5.0)
Type: in vivo, human
Protocol: The study was approved by the ethics committee at every participating institution and was conducted according to the recommendations of Good Clinical Practice and the Declaration of Helsinki. All patients provided written informed consent to participate in the study.
Part 1 of this study included a dose-escalation cohort to assess the incidence of dose-limiting toxicities (DLTs) and adverse events, and a PK/PD cohort to characterize the PK/PD profile of GSK3368715 (Fig. 1). A food-effect cohort and a second study phase (part 2) to assess the preliminary clinical activity of GSK3368715 were also planned.
For each dosing group in the dose-escalation cohort, GSK3368715 was administered on day 1, no treatment was administered on days 2 and 3 (to characterize single-dose PK), and daily dosing continued thereafter until disease progression, unacceptable toxicity, or withdrawal of consent. Study treatment was dosed at approximately the same time of day (±4 h), with no food for 1 h before and 2 h after each dose.
The study resumed under a protocol amendment with the PK/PD cohort starting at a daily dose of 100 mg, and dose escalation was limited to 50-mg increments. The incidence and frequency of TEEs were added to the DLT criteria (grade 2 TEE requiring systemic anticoagulation or ≥grade 3 TEE) with extended monitoring to 8 weeks or until study discontinuation, whichever occurred first. Further, eligibility criteria were modified to exclude patients at high risk of thrombosis (ie, Khorana score ≥3 or prior medical history of TEE). Patients with a Khorana score of 2 were considered for prophylactic anticoagulation if deemed appropriate by the investigator. Khorana score is a risk assessment model based on clinical and laboratory parameters to classify the risk for chemotherapy-associated venous thromboembolism (Supplemental Table 2).
Adverse events were coded using the standard MedDRA groupings and graded according to NCI-CTCAE version 5.0. Clinical chemistry, urinalysis, and coagulation tests were performed predose on days 1, 8, 15, 22, and weekly thereafter. Tumor imaging occurred every 8 weeks until week 33, and then every 16 weeks thereafter.
The Neuenschwander Continual Reassessment Method dose-escalation design has been previously described. […] Additionally, following the protocol amendment, dose escalations were limited to 50-mg increments.
Adverse events and DLTs were summarized descriptively by dose cohort. Pharmacokinetic parameters of GSK3368715 and its metabolites (GSK3963583 and GSK3983164) were estimated in the PK/PD population (all participants for whom a PK sample was obtained) using a noncompartmental analysis model (WinNonlin version 8.1) and summarized descriptively. Best overall response as per RECIST 1.1 was summarized descriptively by dose cohort. Levels of tumor cell and plasma pharmacodynamic biomarkers were also summarized descriptively.

CCOCC1(COCC)CCC(c2[nH]ncc2CN(C)CCNC)CC1 [GSK3368715]
Grade 3 TEE events: 8 | AE: Anemia (50 mg (n = 3)): 1 (33) n (%) | AE: Diarrhea (50 mg (n = 3)): 1 (33) n (%) | AE: Dyspnea (50 mg (n = 3)): 1 (33) n (%) | AE: Fatigue (50 mg (n = 3)): 1 (33) n (%) | AE: Nausea (50 mg (n = 3)): 2 (67) n (%) | AE: Neutrophil count decreased (50 mg (n = 3)): 0 n (%) | AE: Pulmonary embolism (50 mg (n = 3)): 0 n (%) | AE: Pyrexia (50 mg (n = 3)): 1 (33) n (%) | AE: Vomiting (50 mg (n = 3)): 2 (67) n (%) | Any AE (all AEs and all grades) (50 mg (n = 3)): 3 (100) n (%) | GSK3368715-related Grade 3 AE: Aortic thrombosis (50 mg (n = 3)): 0 n (%) | GSK3368715-related Grade 3 AE: Atrial fibrillation (50 mg (n = 3)): 0 n (%) | GSK3368715-related Grade 3 AE: Deep vein thrombosis (50 mg (n = 3)): 0 n (%) | GSK3368715-related Grade 3 AE: Neutrophil count decreased (50 mg (n = 3)): 0 n (%) | GSK3368715-related Grade 4 AE: Lymphocyte count decreased (50 mg (n = 3)): 0 n (%) | GSK3368715-related Grade 4 AE: Platelet count decreased (50 mg (n = 3)): 0 n (%) | Dose-limiting toxicities (DLTs) (50 mg dose group): no DLTs | Thromboembolic event grade: Portal vein thrombosis (50 mg, patient with cholangiocarcinoma): 2 | AE: Anemia (100 mg (n = 16)): 6 (38)^b n (%) | AE: Diarrhea (100 mg (n = 16)): 5 (31)^b n (%) | AE: Dyspnea (100 mg (n = 16)): 2 (13) n (%) | AE: Fatigue (100 mg (n = 16)): 6 (38) n (%) | AE: Nausea (100 mg (n = 16)): 3 (19) n (%) | AE: Neutrophil count decreased (100 mg (n = 16)): 1 (6)^d,e n (%) | AE: Pulmonary embolism (100 mg (n = 16)): 2 (13)^c n (%) | AE: Pyrexia (100 mg (n = 16)): 5 (31) n (%) | AE: Vomiting (100 mg (n = 16)): 2 (13) n (%) | Any AE (all AEs and all grades) (100 mg (n = 16)): 15 (94) n (%) | GSK3368715-related Grade 3 AE: Aortic thrombosis (100 mg (n = 16)): 0 n (%) | GSK3368715-related Grade 3 AE: Atrial fibrillation (100 mg (n = 16)): 0 n (%) | GSK3368715-related Grade 3 AE: Deep vein thrombosis (100 mg (n = 16)): 0 n (%) | GSK3368715-related Grade 3 AE: Neutrophil count decreased (100 mg (n = 16)): 1 (6)^e n (%) | GSK3368715-related Grade 4 AE: Lymphocyte count decreased (100 mg (n = 16)): 0 n (%) | GSK3368715-related Grade 4 AE: Platelet count decreased (100 mg (n = 16)): 0 n (%) | Thromboembolic event grade: Pulmonary embolism (100 mg, patient with head and neck squamous cell carcinoma, study drug withdrawn): 2 | Thromboembolic event grade: Pulmonary embolism (100 mg, patient with pancreas adenocarcinoma): 3 | Grade 5 pulmonary embolism, number (200 mg): 1 | AE: Anemia (200 mg (n = 12)): 2 (17) n (%) | AE: Diarrhea (200 mg (n = 12)): 1 (8) n (%) | AE: Dyspnea (200 mg (n = 12)): 1 (8) n (%) | AE: Fatigue (200 mg (n = 12)): 1 (8) n (%) | AE: Nausea (200 mg (n = 12)): 4 (33) n (%) | AE: Neutrophil count decreased (200 mg (n = 12)): 3 (25) n (%) | AE: Pyrexia (200 mg (n = 12)): 0 n (%) | AE: Vomiting (200 mg (n = 12)): 3 (25) n (%) | Any AE (all AEs and all grades) (200 mg (n = 12)): 12 (100) n (%) | GSK3368715-related Grade 3 AE: Aortic thrombosis (200 mg (n = 12)): 1 (8)^b,g n (%) | GSK3368715-related Grade 3 AE: Atrial fibrillation (200 mg (n = 12)): 1 (8)^g n (%) | GSK3368715-related Grade 3 AE: Deep vein thrombosis (200 mg (n = 12)): 1 (8) n (%) | GSK3368715-related Grade 3 AE: Neutrophil count decreased (200 mg (n = 12)): 0 n (%) | GSK3368715-related Grade 4 AE: Lymphocyte count decreased (200 mg (n = 12)): 1 (8)^b n (%) | GSK3368715-related Grade 4 AE: Platelet count decreased (200 mg (n = 12)): 1 (8)^b,g n (%) | Thromboembolic event grade: Pulmonary embolism (200 mg, patient with epithelioid hemangioendothelioma): 3 | Thromboembolic event grade: Pulmonary embolism (200 mg, patient with mucoepidermoid carcinoma of parotid): 3 | Thromboembolic event grade: Pulmonary embolism (200 mg, patient with pancreas adenocarcinoma mucinous, fatal): 5 | Participants with grade 2 portal vein thrombosis (50-mg dose group): 1 | Dose-limiting toxicities (DLTs) (100-mg dose group): no DLTs | Patients with grade 3 decrease in neutrophil count leading to dose reduction (100-mg dose group): 1 patient | Pulmonary embolisms reported (1 grade 2, 1 grade 3) (100-mg dose group): 2 | Grade 3 aortic thrombosis events (200-mg dose group): 1 | Grade 3 deep vein thrombosis events (200-mg dose group): 1 | Grade 3 portal vein thrombosis events (200-mg dose group): 2 | Grade 3 pulmonary embolism events (200-mg dose group): 4 | Patients with grade 3 aortic thrombosis (200-mg dose group): 1 patient | Patients with grade 3 atrial fibrillation (200-mg dose group): 1 patient | Patients with grade 3 deep vein thrombosis (200-mg dose group): 1 patient | Patients with grade 4 decrease in lymphocyte count (200-mg dose group): 1 patient | Patients with grade 4 decrease in platelet count (200-mg dose group): 2 patients | Patients with dose-limiting toxicities (DLTs) (200-mg dose group (n = 12), aortic thrombosis, atrial fibrillation, decrease in platelet count): 25% | Fatal (grade 5) SAEs (200-mg dose group, PE and intracranial hemorrhage): 2 | AE: Anemia (Total (N = 31)): 9 [29%] n (%) and 9 (29) n (%) | AE: Diarrhea (Total (N = 31)): 7 (23) n (%) | AE: Dyspnea (Total (N = 31)): 4 (13) n (%) | AE: Fatigue (Total (N = 31)): 8 [26%] n (%) and 8 (26) n (%) | AE: Nausea (Total (N = 31)): 9 [29%] n (%) and 9 (29) n (%) | AE: Neutrophil count decreased (Total (N = 31)): 4 (13) n (%) | AE: Pyrexia (Total (N = 31)): 6 (19) n (%) | AE: Vomiting (Total (N = 31)): 7 (23) n (%) | Any AE (all AEs and all grades) (Total (N = 31)): 30 [97%] n (%) and 30 (97) n (%) | GSK3368715-related AEs by maximum grade: Grade 3 (Total (N = 31)): 4 (13) n (%) | GSK3368715-related AEs by maximum grade: Grade 4 (Total (N = 31)): 2 (6) n (%) | Number of grade 3 TEEs (across dose groups (abstract)): 8 | Patients experiencing thromboembolic events (TEEs) (across dose groups, N = 31, 95% confidence interval 14–48%): 29% | Number of thromboembolic events (TEEs) (across dose groups, in 9 participants): 12 | Changes from baseline for clinical chemistry, hematology, urinalysis, or echocardiograms (ECGs) (all dose groups): No clinically significant trends | Patients who discontinued due to a DLT (all dose groups, N = 31): 3 | Patients who discontinued due to an AE (all dose groups, N = 31): 5 patients | Patients with ≥1 grade 3 or grade 4 treatment emergent AEs (all dose groups, N = 31): 52% | Patients with ≥1 serious AE (SAE) (all dose groups, N = 31): 39%
